Molecules are shown by their SMILES.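 Exposure lasted 48 hours, with cells grown in 96-well plates and compounds tested at five concentrations. At the GI50, growth is halved.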 Calls of active or inactive are those of the source. Cut-off read from the data, not from the text of the source: active = GI50 up to about 1.1 µM and inactive = higher. Where a SMILES comes first, the peptide text is derived from it.

Experimental findings from ChEMBL document CHEMBL1201862, “PubChem BioAssay data set” (2004) are described below.

Among the test systems are 786-0; SF-268; OVCAR-5; EKVX; MDA-MB-435; NCI-H460; HOP-62; COLO 205; SNB-75; Malme-3M; NCI-H226; UACC-257; MOLT-4; T47D; CCRF-CEM; A549; NCI-H522; MCF7; TK-10; OVCAR-3.
What all share (experiment): NCI anticancer screen, dose series, 48 h

`COc1ccc2nc3ccc(OC)cc3c([S+]([O-])Cc3ccccc3)c2c1` (stereo not given): the GI50 in the test with 786-0 was 2.21 µM (inactive); with SF-268, 16.9 µM (inactive); in the test on OVCAR-5 it was 15.7 µM (inactive); in the test with EKVX it was 16.3 µM (inactive); in the test with MDA-MB-435, 12.8 µM (inactive); in the test with NCI-H460, 25.5 µM (inactive). For the same compound, the GI50 with HOP-62 is 18 µM (inactive); in the test on COLO 205, 7.26 µM (inactive); with SNB-75, 15.5 µM (inactive); in the test on Malme-3M, 2.42 µM (inactive); in the test on NCI-H226, 19.4 µM (inactive); in the test with UACC-257, 7.8 µM (inactive). Besides, the GI50 in the test with MOLT-4 was 2.79 µM (inactive); in the test with T47D it was 2.11 µM (inactive); with CCRF-CEM, 2.65 µM (inactive); in the test with A549, 19.1 µM (inactive); in the test with NCI-H522, 1.65 µM (inactive); in the test with MCF7, 2.3 µM (inactive). Besides, the GI50 in the test on TK-10 was 7.71 µM (inactive); in the test on OVCAR-3, 13.1 µM (inactive).
As to `CCCCCCCCCCCC(=O)NCc1ccc(OC(=O)CCCCCCCCCCC)c(OC)c1`, the GI50 is > 100 µM (inactive) with 786-0; > 54.1 µM (inactive) with SF-268; > 100 µM (inactive) in the test on OVCAR-5; > 100 µM (inactive) in the test with EKVX; > 75.2 µM (inactive) in the test on MDA-MB-435; > 100 µM (inactive) in the test on NCI-H460. Besides, the GI50 was > 100 µM (inactive) in the test on HOP-62; 35.6 µM (inactive) with COLO 205; > 100 µM (inactive) in the test with SNB-75; > 100 µM (inactive) in the test on Malme-3M; > 100 µM (inactive) with NCI-H226; > 100 µM (inactive) in the test on UACC-257. Further, the GI50 was 2.75 µM (inactive) with MOLT-4; 32.2 µM (inactive) with T47D; 1.34 µM (inactive) in the test with CCRF-CEM; > 100 µM (inactive) with A549; 2.63 µM (inactive) in the test with NCI-H522; 35.3 µM (inactive) in the test with MCF7. The results for the GI50 in the test with TK-10 and in the test on OVCAR-3 were > 100 µM (inactive) and 31.9 µM (inactive), respectively.
As for `CN(C)c1ccc(/C=C(\NC(=O)c2ccccc2)C(=O)NC(Cc2c[nH]c3ccccc23)C(=O)O)cc1` (stereo not given), the GI50 with 786-0, in the test on SF-268, in the test on OVCAR-5, in the test with EKVX, with MDA-MB-435 and in the test on NCI-H460 was > 100 µM (inactive) in each case. For the same compound, the GI50 is 34.4 µM (inactive) with HOP-62; > 100 µM (inactive) in the test with COLO 205; 0.226 µM (active) with SNB-75; > 100 µM (inactive) with Malme-3M; > 100 µM (inactive) in the test with NCI-H226; 69 µM (inactive) in the test with UACC-257. The GI50 was > 100 µM (inactive) in the test with MOLT-4; > 100 µM (inactive) with T47D; > 100 µM (inactive) in the test with CCRF-CEM; > 100 µM (inactive) in the test with A549; 47.6 µM (inactive) in the test with NCI-H522; > 100 µM (inactive) in the test with MCF7. For the same compound, the GI50 in the test on TK-10 and in the test on OVCAR-3 was > 100 µM (inactive) each time.
For `COc1cc(C2C=C(c3ccccc3)Oc3cc4c(cc32)OCO4)cc(OC)c1OC` (stereo not given), the GI50 in the test with 786-0 was 0.386 µM (active); in the test with SF-268 it was 3.17 µM (inactive); in the test on OVCAR-5, 0.585 µM (active); in the test on EKVX it was 0.565 µM (active); in the test with MDA-MB-435, 0.188 µM (active); with NCI-H460, 0.436 µM (active). The GI50 with HOP-62 was 0.675 µM (active); with COLO 205, 0.33 µM (active); in the test with SNB-75 it was 2.4 µM (inactive); with Malme-3M, 0.527 µM (active); with NCI-H226 it was 0.376 µM (active); in the test with UACC-257, 3.33 µM (inactive). The GI50 in the test on MOLT-4 is 0.43 µM (active); in the test with T47D, 2 µM (inactive); in the test with CCRF-CEM, 0.46 µM (active); in the test with A549 it was 0.2 µM (active); in the test with NCI-H522, 0.327 µM (active); with MCF7, 0.409 µM (active). For the same compound, the values for the GI50 with TK-10 and in the test on OVCAR-3 were > 36.2 µM (inactive) and 0.324 µM (active), respectively.
Turning to `COC1(C)Cc2c(c(C)c(O)c3c2C(=O)C=C(Cl)C3=O)O1` (stereo not given), the GI50 in the test on 786-0 is > 100 µM (inactive); in the test with SF-268, > 88.1 µM (inactive); in the test on OVCAR-5 it was > 100 µM (inactive); with EKVX it was > 100 µM (inactive); in the test on MDA-MB-435, > 100 µM (inactive); with NCI-H460 it was > 100 µM (inactive). In addition, the GI50 with HOP-62 was > 100 µM (inactive); in the test on COLO 205, 18.2 µM (inactive); in the test on SNB-75, > 100 µM (inactive); with Malme-3M, 13.5 µM (inactive); in the test on NCI-H226 it was > 100 µM (inactive); with UACC-257, > 56.5 µM (inactive). In addition, the GI50 with MOLT-4 was 7.5 µM (inactive); with T47D, 13.4 µM (inactive); in the test on CCRF-CEM, 3.39 µM (inactive); with A549, > 100 µM (inactive); in the test with NCI-H522 it was 16.9 µM (inactive); in the test on MCF7, 41.8 µM (inactive). In addition, the GI50 was 22.7 µM (inactive) in the test with TK-10 and 44.2 µM (inactive) in the test on OVCAR-3.
`CC(C)CC(NC(=O)C(Cc1ccccc1)NC(=O)C(Cc1c[nH]c2ccccc12)NC(=O)CNC(=O)C(N)Cc1ccc(O)cc1)C(=O)O` (stereo not given) (H-YGWFL-OH; configuration not given here): the GI50 in the test with 786-0 was 23.6 µM (inactive); in the test with SF-268, 47.3 µM (inactive); with OVCAR-5, > 100 µM (inactive); in the test on EKVX, 35.2 µM (inactive); in the test with MDA-MB-435, 34.9 µM (inactive); in the test with NCI-H460, 44.4 µM (inactive). Also, the GI50 in the test with HOP-62 is 46.5 µM (inactive); in the test with COLO 205, 16.4 µM (inactive); in the test with SNB-75, 30.8 µM (inactive); in the test with Malme-3M, 21.2 µM (inactive); in the test on NCI-H226 it was 46.8 µM (inactive); in the test on UACC-257, 41.2 µM (inactive). The GI50 in the test with MOLT-4 is 59.7 µM (inactive); with T47D it was 25.6 µM (inactive); with CCRF-CEM, 42.6 µM (inactive); with A549, 37.4 µM (inactive); in the test with NCI-H522, 34 µM (inactive); in the test on MCF7, 37.4 µM (inactive). For the same compound, the results for the GI50 in the test with TK-10 and with OVCAR-3 were 78.7 µM (inactive) and 23.2 µM (inactive), respectively.
